The record followed here is US7547716B2, “Sulfonamide derivatives” (Institute of Medicinal Molecular Design, Inc., priority 2001, dated 2009).

Counter-ions that a name gives are not always drawn.

For this assay, the system named is Jurkat cells. The experiment in a line: Jurkat cell proliferation, compound alone or combined with bleomycin, living cells counted by MTS method. In kind it is cell-based. Set-up: key: ++ indicates observation of remarkable enhancement; + indicates moderated enhancement. As to conditions: enhancement of the decrease in Jurkat cell survival rate by bleomycin 5 μg/ml or 10 μg/ml, 36 hours incubation. Here is the method:
By using the compounds synthesized above, effects on proliferation of Jurkat cells by sole administration and inhibitory effects on cell proliferation by administration in combination with bleomycin were examined. Materials and methods are as follows. Jurkat cells obtained from Dainippon Pharmaceutical Co. Ltd. were inoculated at about 10,000 cells per well in a 96 well culture plate, and incubated in 10% bovine fetal serum (Irvine Scientific) supplemented with RPMI1640(ICN) medium in 5% CO2 incubator at 37° C. […] 36 hours after the incubation, the number of living cells was counted by the MTS method.
More specifically, 20 μl of CellTiter96™ AQueous One Solution (Promega) was added per one well, and after the cells were incubated for additional one hour, an absorbance at 490 nm was measured by using a microplate reader. The same culture added with DMSO as a solvent at final concentration of 0.25% was used as a control. The number of cells in the control was considered as 100% survival rate, and for each compound, survival rates by sole administration or a combined administration were calculated.
Take `COc1cccc(CNS(=O)(=O)c2cccc3c(N)cccc23)c1` [Compound 25, 5-amino-N-[(3-methoxyphenyl)methyl]-1-naphthalenesulfonamide hydrochloride]: the Activity result is on record as “++”.

On to `Nc1cccc2c(S(=O)(=O)NCc3ccc(OCc4ccccc4)cc3)cccc12` [Compound 36, 5-amino-N-[[4-(phenylmethoxy)phenyl]methyl]-1-naphthalenesulfonamide hydrochloride], for which the Activity entry is “+”.

As to `Nc1cccc2c(S(=O)(=O)NCc3ccc(C(=O)O)cc3)cccc12` [Compound 48, 4-[[[(5-amino-1-naphthalenyl)sulfonyl]-amino]methyl]benzoic acid hydrochloride], the Activity entry is listed as “+”.

Turning to `Nc1cccc2c(S(=O)(=O)NC3CCCc4ccccc43)cccc12` (stereo not drawn) [Compound 58, 5-amino-N-(1,2,3,4-tetrahydro-1-naphthalenyl)-1-naphthalenesulfonamide], the Activity entry was “+”.

In the case of `COc1ccc(CNS(=O)(=O)c2cccc3c(N)cccc23)cc1` [Compound 26, 5-amino-N-[(4-methoxyphenyl)methyl]-1-naphthalenesulfonamide hydrochloride], the Activity entry was “+”.

Turning to `Nc1cccc2c(S(=O)(=O)NCc3ccccc3C(F)(F)F)cccc12` [Compound 19, 5-amino-N-[[2-(trifluoromethyl)phenyl]methyl]-1-naphthalenesulfonamide hydrochloride], the Activity entry is “++”.

With `Nc1cccc(CNS(=O)(=O)c2cccc3c(N)cccc23)c1` [Compound 44, 5-amino-N-[(3-aminophenyl)methyl]-1-naphthalenesulfonamide dihydrochloride], the Activity entry is on record as “+”.

In the case of `COc1cccc(CNS(=O)(=O)c2cccc3c(N)cccc23)c1OC` [Compound 28, 5-amino-N-[(2,3-dimethoxyphenyl)methyl]-1-naphthalenesulfonamide hydrochloride], the Activity entry is reported as “++”.

`Nc1cccc2c(S(=O)(=O)NCc3ccccn3)cccc12` [Compound 53, 5-amino-N-(2-pyridinylmethyl)-1-naphthalenesulfonamide dihydrochloride]: the Activity entry is “+”.

Regarding `COc1ccccc1CNS(=O)(=O)c1cccc2c(N)cccc12` [Compound 24, 5-amino-N-[(2-methoxyphenyl)methyl]-1-naphthalenesulfonamide hydrochloride], the Activity result was “++”.

`Nc1cccc2c(S(=O)(=O)NCc3c(F)cccc3F)cccc12` [Compound 12, 5-amino-N-[(2,6-difluorophenyl)methyl]-1-naphthalenesulfonamide hydrochloride]: the Activity result is listed as “++”.

With `Nc1cccc2c(S(=O)(=O)NCc3cccc([N+](=O)[O-])c3)cccc12` [Compound 41, 5-amino-N-[(3 nitrophenyl)methyl]-1-naphthalenesulfonamide hydrochloride], the Activity entry is “++”.

For `Nc1cccc2c(S(=O)(=O)NCc3cc(F)cc(F)c3)cccc12` [Compound 14, 5-amino-N-[(3,5-difluorophenyl)methyl]-1-naphthalenesulfonamide hydrochloride], the Activity result is reported as “+”.

For the molecule `CC(C)(C)c1ccc(CNS(=O)(=O)c2cccc3c(N)cccc23)cc1` [Compound 18, 5-amino-N-[[4-(1,1-dimethylethyl)phenyl]methyl]-1-naphthalenesulfonamide hydrochloride], the Activity result is listed as “++”.

`Cc1ccccc1CNS(=O)(=O)c1cccc2c(N)cccc12` [Compound 15, 5-amino-N-[(2-methylphenyl)methyl]-1-naphthalenesulfonamide hydrochloride]: the Activity result was “+”.

With `CC(NS(=O)(=O)c1cccc2c(N)cccc12)c1cccc2ccccc12` (stereo not drawn) [Compound 56, 5-amino-N-[1-(1-naphthalenyl)ethyl]-1-naphthalenesulfonamide hydrochloride], the Activity entry is “+”.

`Nc1cccc2c(S(=O)(=O)NCc3ccc(Cl)cc3)cccc12` [Compound 5, 5-amino-N-[(4-chlorophenyl)methyl]-1-naphthalenesulfonamide hydrochloride]: the Activity entry is recorded as “+”.

`Nc1cccc2c(S(=O)(=O)NCc3ccc(C(F)(F)F)cc3)cccc12` [Compound 21, 5-amino-N-[[4-(trifluoromethyl)phenyl]methyl]-1-naphthalenesulfonamide hydrochloride]: the Activity result is “++”.

As to `Nc1cccc2c(S(=O)(=O)Nc3ccccc3)cccc12` [Compound 64, 5-amino-N-phenyl-1-naphthalenesulfonamide hydrochloride], the Activity result was “+”.

In the case of `CC(NS(=O)(=O)c1cccc2c(N)cccc12)c1ccccc1` (stereo not drawn) [Compound 55, 5-amino-N-(1-phenylethyl)-1-naphthalenesulfonamide], the Activity result is reported as “+”.

As to `Nc1cccc2c(S(=O)(=O)NCc3cccc(OCc4ccccc4)c3)cccc12` [Compound 35, 5-amino-N-[[3-(phenylmethoxy)phenyl]methyl]-1-naphthalenesulfonamide hydrochloride], the Activity result is given as “+”.

Consider `Nc1cccc2c(S(=O)(=O)NCc3ccc(Cl)cc3Cl)cccc12` [Compound 6, 5-amino-N-[(2,4-dichlorophenyl)methyl]-1-naphthalenesulfonamide hydrochloride], for which the Activity entry is “++”.

As for `Nc1cccc2c(S(=O)(=O)NCc3ccccc3Cl)cccc12` [Compound 3, 5-amino-N-[(2-chlorophenyl)methyl]-1-naphthalenesulfonamide hydrochloride], the Activity entry is reported as “+”.

With `COc1cc(CNS(=O)(=O)c2cccc3c(N)cccc23)cc(OC)c1` [Compound 31, 5-amino-N-[(3,5-dimethoxyphenyl)methyl]-1-naphthalenesulfonamide hydrochloride], the Activity entry is “++”.

For the molecule `Nc1ccccc1CNS(=O)(=O)c1cccc2c(N)cccc12` [Compound 43, 5-amino-N-[(2-aminophenyl)methyl]-1-naphthalenesulfonamide dihydrochloride], the Activity entry is “+”.

`Nc1cccc2c(S(=O)(=O)NCc3ccc([N+](=O)[O-])cc3)cccc12` [Compound 42, 5-amino-N-[(4-nitrophenyl)methyl]-1-naphthalenesulfonamide hydrochloride]: the Activity result is given as “++”.

For the molecule `Nc1cccc2c(S(=O)(=O)NCc3cccc4ccccc34)cccc12` [Compound 1, 5-amino-N-[(1-naphthalenyl)methyl]-1-naphthalenesulfonamide hydrochloride], the Activity result is reported as “+”.

`Nc1cccc2c(S(=O)(=O)NCc3cccc(O)c3)cccc12` [Compound 38, 5-amino-N-[(3-hydroxyphenyl)methyl]-1-naphthalenesulfonamide hydrochloride]: the Activity result is listed as “+”.

Regarding “5-amino-N-[(2-fluorophenyl)methyl-1-naphthalenesulfonamide hydrochloride [Compound 9]”, the Activity result was “+”.

“5-amino-N-[[[4′-methyl-1,1′-biphenyl]-2-yl]methyl]-1-naphthalenesulfonamide hydrochloride [Compound 23]”: the Activity entry is reported as “+”.
